From patent US12606533B2, “3-phenylpropylamine derivative” (DAIICHI SANKYO COMPANY, LIMITED, priority 2023, dated 2026)

How the values were obtained:
SF-1 = biological target: T1, SF-1 (Homo sapiens, UniProt Q13285); test: SF1 degradation induction in NCI-H295R SF-1-HiBiT cells (HiBiT DC50); format: cell-based; conditions: 24 hr, concentration that induces 50% degradation of SF-1
T1 construct: NCI-H295R SF-1-HiBiT cells with HiBiT tag knocked in at the endogenous SF1 locus; host or cells: NCI-H295R SF-1-HiBiT (knock-in at endogenous locus)
In short: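 NCI-H295R cells carrying HiBiT-tagged SF-1, plated and grown 24 hr, then exposed to serially diluted compounds for 24 hr at 37° C. Remaining SF-1 read by lytic HiBiT luminescence; degradation rate from treated vs compound-free signal, DC50 as concentration giving 50% degradation.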

NCI-H295R cells = test: Proliferation inhibitory action on NCI-H295R (CellTiter-Glo, 7 days); format: cell-based, human; conditions: Homo sapiens, NCI-H295R, 168 h
In short: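 Compounds serially diluted in DMSO; cells seeded at 2×10^3 cells/well and cultured 7 days at 37° C, 5% CO2. CellTiter-Glo 2.0 luminescence read at day 0 and day 7; proliferation rate derived from compound-addition-day signal, untreated day-7 signal and treated day-7 signal.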

[1] = tested on: NCI-H295R cell subcutaneous transplant model; test: Antitumor activity against NCI-H295R cell subcutaneous transplant model (adrenocortical carcinoma); format: in vivo, mouse; conditions: female NSG mice, oral 30 mg/kg/day QD x 10 to 11, day the test was terminated
Procedure: NCI-H295R cells were subcutaneously transplanted at 1.0 to 2.0×10^7 cells/head into the right flank of female NSG mice and, when the estimated tumor volume (major axis×minor axis×minor axis/2) reached 100 to 300 mm^3, the mice were divided into groups of 4 to 5 mice each such that no difference was present between groups. Female NSG mice were purchased from Charles River Japan Co., Ltd. From the day of grouping, each compound was orally administered at a dose of 30 mg/kg/day once a day for 10 to 11 consecutive days (QD×10 to 11). Individual estimated tumor volumes were measured from the day of grouping until 11 to 12 days after grouping (the day the test was terminated). To the vehicle-control group was administered 0.5% methylcellulose containing 6.2-6.4 mM mesylic acid.
The antitumor activity against the NCI-H295R cell subcutaneous transplant model in Experimental Example 5 was calculated by the following formula on the day the test was terminated.

[2] = tested on: xenograft model derived from a prostate cancer patient; test: Antitumor activity in human prostate cancer cell subcutaneous transplant model (patient-derived xenograft); format: in vivo, mouse; conditions: male NSG mice, oral 100 mg/kg/day QD x 28 to 32, day of completion of test
From the text: A xenograft model derived from a prostate cancer patient (obtained from the National Institute of Biomedical Innovation (NIBIO)) was used for antitumor evaluation. Tumors excised from seed mice were cut into about 4-5 mm squares and subcutaneously transplanted into the right flank of male NSG mice. On the fourth day after transplantation, the mice were divided into groups of 8 to 10 mice each to ensure uniformity of the seed mice. From the day of grouping, each compound was orally administered once a day at a dose of 100 mg/kg/day for 28 to 32 consecutive days (QD x 28 to 32). Individual estimated tumor volumes were measured from the day of grouping until the day after the final administration (the day of completion of test). To the vehicle-control group was administered 0.5% methylcellulose containing 21.3 mM mesylic acid.
The antitumor activity in the human prostate cancer cell subcutaneous transplant model was calculated by the following formula on the day of completion of each test.

mouse uterus = test: Inhibitory activity on normal mouse uterine weight (inhibitory action on estrogen activity); format: in vivo; conditions: female NSG mice, oral 100 mg/kg/day QD x 8, 24 hr after final administration, relative to vehicle control group
Procedure: Female NSG mice were purchased from Charles River Japan, Inc. From the day of grouping, each compound was orally administered at a dose of 100 mg/kg/day once a day for 8 consecutive days (QD×8). To the vehicle-control group was administered 0.5% methylcellulose. 24 hr after the final administration, the wet weight of the mouse uterus was measured, and the relative uterine weight (%) to the vehicle control group was calculated by the following formula.
The relative uterine weight (unit: %) of the compound corresponding to each Example No. to the vehicle control group is shown in Table 100.

SF1-LBD = SF1-LBD (Homo sapiens, UniProt Q13285); test: Inhibitory activity against binding of DAX1 to SF1-LBD (AlphaLISA); conditions: inhibition of binding of DAX1 peptide to His-SF1-LBD, read-out: cell-free SF1 IC50
Procedure: The binding activity of each compound to the SF-1 ligand binding domain (LBD) was evaluated using the binding inhibitory activity of each compound against binding of DAX1 to SF1-LBD as an index. 100 nM His-SF1-LBD, 2 nM Biotin-DAX1 peptide (Biotin-[…]-NH2) and each compound (8-point i1 dilution series with common ratio 2 from final concentration 2 μM) were mixed in assay buffer [25 mM HEPES (pH 7.5), 100 mM NaCl, 0.1% BSA, 0.01% CHAPS, 1 mM DTT] and reacted at room temperature for 30 min. Anti-6×His AlphaLISA Acceptor beads and Streptavidin-coated AlphaScreen Donor beads were mixed to a final concentrations of 5 μg/ml and 10 μg/ml, respectively, and reacted in the dark at room temperature for 60 min. AlphaLISA signals were detected using a multimode plate reader (EnVision Xcite, PerkinElmer). The binding rate of DAX1 peptide to SF1 was calculated from the luminescence amount (C) of the compound-free group and the luminescence amount (T) of the compound-added group, based on the following formula.
The DAX1 peptide binding rate at each concentration was analyzed using GraphPad Prism6 (GraphPad Software Inc.) to calculate the concentration (IC50 value) of each compound that inhibits 50% of the binding of DAX1 to SF1-LBD.

CYP11A1 = test: Changes in SF1 target gene expression for NCI-H295R: CYP11A1 mRNA (qPCR); format: cell-based; conditions: Homo sapiens, NCI-H295R cells, 24 hr
Procedure: (§1) NCI-H295R cells were cultured in a 5% CO2 incubator at 37° C. using DMEM/F12 medium (Thermo Fisher Scientific Inc.) containing 2.5% Nu-Serum (registered trademark) Growth Medium Supplement (Corning) and 1% Corning ITS+ Premix Universal Culture Supplement (Corning). The DMSO solution of each compound was serially diluted with DMSO using a D300e Digital Dispenser (TECAN), and the compounds were added to a 96-well plate (FALCON). NCI-H295R cells were seeded at 1×10^4 cells/50 μL/well on the 96-well plate containing the compounds added thereto, and cultured for 24 hr in a 5% CO2 incubator at 37° C. The final DMSO concentration in the medium was adjusted to 0.1% (v/v) in all cases, and the concentration range of the compounds was set to 1000 nM to 0.32 nM with a common ratio […]. After the completion of culture, the medium was discarded, 50 μL/well of chilled D-PBS (Sigma Aldrich) was added to wash the cells, and D-PBS was discarded. After washing, 25 μL/well of Cells-to-CT (registered trademark) Bulk Lysis Reagents (Thermo Fisher Scientific, Inc.) was added to the wells, the mixture was stirred for 5 min with a plate mixer, and 2.5 μL/well of the reaction quenching liquid was added to prepare cell lysate. The cell lysate was dispensed into a 96-well plate (Corning) at 10 μL/well, and 40 μL/well of Cells-to-CT Bulk RT Reagents (Thermo Fisher Scientific, Inc.) was added. A reverse transcription reaction was performed at 37° C. for 50 min using a thermal cycler, and the reverse transcriptase was inactivated by heating at 95° C. for 5 min, and then stored at 10° C. PrimeTime (registered trademark) Gene Expression Master Mix (Integrated DNA Technologies), the target genes CYP11A1, CYP17A1, CYP21A2, or STAR, and the control gene ACTB PrimeTime (registered trademark) qPCR Probe Assays (Integrated DNA Technologies), and Nuclease free water were mixed at a ratio of 20:1:1:10 to prepare a PrimerProbe mix. The prepared PrimerProbe mix was added to a 384-well plate at 8 μL/well, and the cDNA obtained by reverse transcription was added at 2 μL/well. Real-Time PCR was performed under fast cycling conditions (95° C. for 3 min, followed by 40 cycles of 95° C. for 5 seconds and 62° C. for 30 seconds) to measure the fluorescent signal. The obtained data was analyzed using GraphPad Prism9 (GraphPad Software Inc.) to calculate the concentration (IC50 value) that reduces the mRNA expression level by 50%. The IC50 values (unit: nM) for CYP11A1, CYP17A1, CYP21A2, and STAR, of the compounds corresponding to each Example number are shown in Table 94.

CYP17A1 = test: Changes in SF1 target gene expression for NCI-H295R: CYP17A1 mRNA (qPCR); format: cell-based; conditions: Homo sapiens, NCI-H295R cells, 24 hr
Procedure: as §1

CYP21A2 = test: Changes in SF1 target gene expression for NCI-H295R: CYP21A2 mRNA (qPCR); format: cell-based; conditions: Homo sapiens, NCI-H295R cells, 24 hr
Procedure: as §1

STAR = test: Changes in SF1 target gene expression for NCI-H295R: STAR mRNA (qPCR); format: cell-based; conditions: Homo sapiens, NCI-H295R cells, 24 hr
Procedure: as §1

Chain of SF1-LBD (Q13285 222-459 limits assumed): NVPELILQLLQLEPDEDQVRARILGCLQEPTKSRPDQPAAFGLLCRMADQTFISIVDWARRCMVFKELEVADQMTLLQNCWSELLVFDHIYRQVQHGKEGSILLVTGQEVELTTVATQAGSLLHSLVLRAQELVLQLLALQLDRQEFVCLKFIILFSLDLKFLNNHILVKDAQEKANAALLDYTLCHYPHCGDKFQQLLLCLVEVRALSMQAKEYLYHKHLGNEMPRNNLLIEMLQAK

Compound	DC50 (SF-1) [nM]	GI50 (NCI-H295R cells) [nM]	tumor growth inhibition rate (%) [1] [%]	tumor growth inhibition rate (%) [2] [%]	relative uterine weight (%) (mouse uterus)	IC50 (SF1-LBD) [nM]	IC50 (CYP11A1) [nM]	IC50 (CYP17A1) [nM]	IC50 (CYP21A2) [nM]	IC50 (STAR) [nM]
COc1ccc([C@]2(CCN(Cc3ccc(C4=CC[C@H](CN5CCN(C(=O)c6ccc7c8c6CCCn8c(=O)n7C6CCC(=O)NC6=O)CC5)CC4)cc3)CC(C)(C)C(F)(F)F)CCOC(C)(C)C2)cc1 (stereo partly drawn) [AW5, 3-{7-[(4-{[(4R)-4′-{[{2-[(4R)-4-(4-Methoxyphenyl)-2,2-dimethyltetrahydro-2H-pyran-4-yl]ethyl)(3,3,3-trifluoro-2,2-dimethylpropyl)amino]methyl}-2,3,4,5-tetrahydro[biphenyl]-4-yl]methyl}piperazin-1-yl)carbonyl]-2-oxo-5,6-dihydro-4H-imidazo[4,5,1-ij]quinolin-1(2H)-yl}piperidine-2,6-dione]	12	85	109	10	74					
COc1ccc([C@]2(CCN(Cc3ccc(C4=CC[C@H](C(=O)N5CCC(Nc6ccc7c8c6CCCn8c(=O)n7C6CCC(=O)NC6=O)CC5)CC4)c(F)c3)CC(C)(C)C(F)(F)F)CCOC(C)(C)C2)cc1 (stereo partly drawn) [BK9, 3-{7-[(1-{[(4R)-2′-Fluoro-4′-{[{2-[(4R)-4-(4-methoxyphenyl)-2,2-dimethyltetrahydro-2H-pyran-4-yl]ethyl)(3,3,3-trifluoro-2,2-dimethylpropyl)amino]methyl}-2,3,4,5-tetrahydro[biphenyl]-4-yl]carbonyl}piperidin-4-yl)amino]-2-oxo-5,6-dihydro-4H-imidazo[4,5,1-ij]quinolin-1(2H)-yl}piperidine-2,6-dione]	3.2	24	131	43	56					
COc1ccc([C@]2(CCN(Cc3ccc(C4=CC[C@H](CN5CCN(C(=O)c6ccc7c8c6NCCn8c(=O)n7C6CCC(=O)NC6=O)CC5)CC4)cc3)CC(C)(C)C(F)(F)F)CCOC(C)(C)C2)cc1 (stereo partly drawn) [BY7, 3-{7-[(4-{[(4R)-4′-{[{2-[(4R)-4-(4-Methoxyphenyl)-2,2-dimethyltetrahydro-2H-pyran-4-yl]ethyl)(3,3,3-trifluoro-2,2-dimethylpropyl)amino]methyl}-2,3,4,5-tetrahydro[biphenyl]-4-yl]methyl}piperazin-1-yl)carbonyl]-2-oxo-5,6-dihydro-4H-imidazo[1,5,4-de]quinoxalin-1(2H)-yl}piperidine-2,6-dione]	7.3	54	118	38	42					
CCO[C@@H](Cc1ccc(Oc2ccc(CN(CC[C@@]3(c4ccc(OC)cc4)CCOC(C)(C)C3)CC(C)(C)C(F)(F)F)cc2)cc1)C(=O)O [Example R3, (2S)-2-Ethoxy-3-[4-(4-{[{2-[(4R)-4-(4-methoxyphenyl)-2,2-dimethyltetrahydro-2H-pyran-4-yl]ethyl}(3,3,3-trifluoro-2,2-dimethylpropyl)amino]methyl}phenoxy)phenyl]propanoic acid]						27	3.3	28	4.3	6.2
COc1ccc([C@]2(CCN(Cc3ccc(O[C@H]4CC[C@H](CC(=O)O)CC4)nc3)CC(C)(C)C(F)(F)F)CCOC(C)(C)C2)cc1 [Example S4, {Trans-4-[(5-{[{2-[(4R)-4-(4-methoxyphenyl)-2,2-dimethyltetrahydro-2H-pyran-4-yl]ethyl}(3,3,3-trifluoro-2,2-dimethylpropyl)amino]methyl}pyridin-2-yl)oxy]cyclohexyl)acetic acid]						22	1.2	12	2.2	3.2
COc1ccc([C@]2(CCN(Cc3ccc(O[C@H]4CC[C@H](CC(=O)O)CC4)cc3)CC(C)(C)C(F)(F)F)CCOC(C)(C)C2)cc1 [Example T2, [Trans-4-(4-{[{2-[(4R)-4-(4-methoxyphenyl)-2,2-dimethyltetrahydro-2H-pyran-4-yl]ethyl}(3,3,3-trifluoro-2,2-dimethylpropyl)amino]methyl}phenoxy)cyclohexyl]acetic acid]						26	1.2	24	2.4	4.1
